Patent US12509435B2, “Compounds for selective binding to estrogen receptors alpha/beta relative to GPER/GPR30 and methods of treating disease states and conditions mediated through these receptors” (UNM RAINFOREST INNOVATIONS, priority 2019, dated 2025)
Where a chain is given by its changes, count along the chain named.

Key:
Format in all cases: cell-based
ERα = target: T1, ERα (Homo sapiens, UniProt P03372); experiment: Degradation of ERα in MCF-7 cells, Western blot; settings: indicated concentrations
T1 construct: endogenous in cells; host or cells: MCF-7
T1 sequence (P03372 1-595): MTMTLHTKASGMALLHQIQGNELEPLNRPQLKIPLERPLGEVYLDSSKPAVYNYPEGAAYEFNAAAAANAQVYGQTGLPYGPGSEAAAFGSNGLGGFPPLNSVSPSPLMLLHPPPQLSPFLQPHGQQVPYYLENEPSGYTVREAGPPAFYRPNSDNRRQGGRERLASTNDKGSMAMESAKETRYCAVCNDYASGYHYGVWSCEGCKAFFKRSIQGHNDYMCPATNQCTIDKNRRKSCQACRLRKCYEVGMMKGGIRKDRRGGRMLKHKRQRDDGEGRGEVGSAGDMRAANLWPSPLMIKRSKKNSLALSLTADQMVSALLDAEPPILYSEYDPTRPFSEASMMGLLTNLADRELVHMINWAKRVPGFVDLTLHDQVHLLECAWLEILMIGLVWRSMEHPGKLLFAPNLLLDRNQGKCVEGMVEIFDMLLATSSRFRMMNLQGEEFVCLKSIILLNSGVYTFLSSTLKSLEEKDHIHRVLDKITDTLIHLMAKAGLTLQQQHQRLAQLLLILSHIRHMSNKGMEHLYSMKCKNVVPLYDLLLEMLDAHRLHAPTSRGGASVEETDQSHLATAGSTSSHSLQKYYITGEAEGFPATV
Procedure: MCF-7 were treated with the indicated compounds and ERα protein levels were assessed by Western blot (top panel). Actin served as a loading control (bottom panel). Quantification of the western blot is shown on the right.

[1] = tested on: Tamoxifen-resistant MCF-7 cells (TamR) and long-term estrogen-deprived MCF-7 cells (LTED); experiment: Cell viability in cell line models of endocrine resistance after 5 days; settings: TamR and LTED MCF-7 cells, normalized to DMSO-treated cells
Excerpt: Cells were a gift from Dr. Donald McDonnell (Duke University).

ERα-Y537S = target: T2, ERα-Y537S (Homo sapiens, UniProt P03372, Y537S); experiment: Degradation of HA-ERα-Y537S mutant in transfected HEK293 cells, Western blot; settings: HEK293 cells transfected with HA-ERα-Y537S, Western blot relative to actin
T2 construct: host or cells: HEK293
T2 sequence (P03372 1-595 Y537S): T1 sequence (P03372 1-595) with Y537S
Excerpt: HEK293 cells transfected with the HA-ERα-Y537S mutant were stimulated with the indicated compounds and HA-ERα-Y537S protein levels assessed by Western blot (left) and quantitated relative to actin (right).

CCCCN(C)C(=O)CCCCCCCCCCCC1=CCC2(CO)COC(c3ccc(O)cc3)C1C2 (stereo not drawn) [AB-82P, N-butyl-12-(1-(hydroxymethyl)-4-(4-hydroxyphenyl)-3-oxabicyclo[3.3.1]non-6-en-6-yl)-N-methyldodecanamide]
degradation of ERα protein levels (ERα): Dose-dependent degradation of ERα | effect on cell viability in models of endocrine resistance [1]: inhibitory effects | degradation of HA-ERα-Y537S protein levels (ERα-Y537S): induced degradation of ERα-Y537S
